{
  "source": "patent US12319726B2",
  "about": "“Method for treating CD40-mediated diseases” (CASE WESTERN RESERVE UNIVERSITY, priority 2008, dated 2025)",
  "key": {"[1]": {"test_system": "human retinal endothelial cells", "assay_type": "cell-based", "text": "(§1) Peptide consisted of the TRAF2,3 binding site of CD40 that was made cell permeable by linking them to the TAT47-57 cell penetrating peptide. Peptides were synthesized using D-amino acids following reverse amino acid sequence (ri format). The sequences for the CD40-TRAF2,3 blocking peptide was —NH2-rrrqrrkkrgy ghlteqvhaatn-OH (SEQ ID NO: 49). The TAT47-57 sequence is underlined. The peptide contains a proline (p) to histidine (h) substitution (shown in italics) that enhances affinity to TRAF2. Control (scrambled) peptide consisted of NH2-rrrqrrkkrgy ntqalahtgevh-OH (SEQ ID NO: 50). The blocking peptide was also synthesized with Alexa Fluor 488 conjugated via maleimide coupling to an additional Cys in the N terminus. Peptides were manufactured by Biopeptide Co. (San Diego, CA) and were low in endotoxin and >98% pure by HPLC. Peptides were used at 1 μM in vitro experiments and 1 μg for in vivo studies unless otherwise stated. Peptides were not toxic to human Müller and retinal endothelial cells as assessed by alamarBlue cell viability assay (Invitrogen Corporation).\n(§2) Primary human retinal endothelial cells were obtained as described (9) and cultured in complete medium supplemented with endothelial cell growth supplement from bovine pituitary (15 μg/ml; Sigma Chemical, St Louis, MO) and insulin/transferrin/selenium (Sigma Chemical). Cell identity was confirmed by incorporation of acetylated low-density lipoprotein (>90%). Endothelial cells were used between passages 3 to 6. The human Müller cell line MIO M1 (gift from Dr. Gloria Limb; University College London, UK; >95% vimentin^+, CRALBP^+ and GFAP^−) was also used. Endothelial cells were incubated with multimeric human CD154 to induce CD40 stimulation (obtained from Dr. Richard Kornbluth, Multimeric Biotherapeutics Inc., La Jolla, CA) or with a non-functional CD154 mutant (T147N) as control.\n(§3) Peptides were tested as described using the mouse endothelial cells mHEVc that expresses a chimera of the extracellular domain of human CD40 and intracytoplasmic domain of mouse CD40 (hmCD40) with either a mutation that prevents recruitment of TRAF2,3 (hmCD40 ΔT2,3) or TRAF6 (hmCD40 ΔT6). These cells were transfected with pGL4.32luc2P/NF-κB-RE/Hygro vector (Promega Corporation, Madison, WI) encoding an NF-κB response element that drives the luciferase reporter gene luc2P (Photinus pyralis). Cells were pre-incubated with peptides for 3 hr. followed by stimulation with human CD154. Luciferase activity was assessed using a Steady-Glo luciferase assay system (Promega Corporation) and a luminometer. The effects of peptides on cell viability were examined using alamarBlue cell viability assay."}, "human Müller cells": {"test_system": "human Müller cells", "assay_type": "cell-based", "text": "as §1, §2, §3"}, "retinas subjected to I/R": {"test_system": "retinas subjected to I/R", "assay": "Model of retinal ischemia/reperfusion (I/R), intravitreal peptide", "assay_type": "in vivo, B6 mice", "method": "FIGS. 20(A-C) illustrate images and graphs showing ri CD40-TRAF2,3 blocking peptide protects against loss of ganglion cells and leukocyte infiltration in retinas subjected to I/R. One eye from each B6 and CD40^−/− mouse was subjected to I/R. Contralateral non-ischemic eye was used as control. Eyes subjected to I/R in B6 mice were treated intravitreously with or without ri control peptide, ri CD40-TRAF2,3 blocking peptide (both 1 μg) 30 min prior to increase in IOP. Eyes were collected 2 d after I/R. A marked decrease in the number of ganglion cells is observed in ischemic eyes from B6 treated with ri control peptide or vehicle (original magnification ×400). […] Arrowhead plus asterix identifies a PMN magnified in the inset (original magnification ×600). Scale bar, 50 μm. Number of ganglion cells per mm. Number of infiltrating leukocytes in the inner retina and vitreous per section. GCL=Ganglion cell layer; IPL=Inner plexiform layer; INL=Inner nuclear layer. OPL=Outer plexiform layer; ONL=Outer nuclear layer. Data shown represent Mean±SEM (9 mice per group). *P<0.05; **P<0.01; […].\nFIG. 21 illustrates graphs showing ri CD40-TRAF2,3 blocking peptide impairs upregulation of NOS2 and COX-2 in retinas subjected to I/R. One eye of each mouse was treated as above and subjected to I/R. Eyes were collected after 2 d. mRNA levels of NOS2 and COX-2 were assessed by quantitative real time PCR. One non-ischemic eye from a B6 mouse was given an arbitrary value of 1 and data are expressed as fold-increase compared to this animal. Data shown represent Mean±SEM (7-9 mice per group). ***P<0.001.\nFIGS. 22(A-B) illustrate graphs and images showing ri CD40-TRAF2,3 blocking peptide impairs upregulation of ICAM-1 and KC/CXCL1 in retinal endothelial cells from retinas subjected to I/R. One eye of each mouse was subjected to I/R. Eyes were collected after 2 d. mRNA levels of ICAM-1 and KC/CXCL1 were assessed by quantitative real time PCR. One non-ischemic eye from a B6 mouse was given an arbitrary value of 1 and data are expressed as fold-increase compared to this animal. Data shown represent Mean±SEM (7-9 mice per group). ***P<0.001. Retinal sections were incubated with Tomato Lectin (labels endothelial cells) plus either anti-ICAM-1 or anti-KC/CXCL1 Ab. Original magnification ×600. GCL=Ganglion cell layer; IPL=Inner plexiform layer; INL=Inner nuclear layer. Scale bar, 10 μm. 6 mice/group.\nFIG. 23 illustrates images showing ri CD40-TRAF2,3 blocking peptide impairs NOS2 and KC/CXCL1 upregulation in Müller cells from retinas subjected to I/R. Eyes from B6 mice were treated with control peptide or CD40-TRAF2,3 blocking peptide, subjected to I/R and collected after 2 d. Retinal sections were incubated with anti-Vimentin Ab (labels Müller cells) plus either anti-NOS2 or anti-KC/CXCL1 Ab. Protein expression at the level of Müller cells stalks. […]. Original magnification ×600. Scale bar, 10 μm. 6 mice/group.\nFIGS. 24(A-D) illustrate images and graphs showing ri CD40-TRAF2,3 blocking peptide protects against loss of ganglion neurons and inflammation when administered after retinal I/R. One eye from each B6 mouse was subjected to I/R. Non-ischemic eyes were used as controls. Eyes that were subjected to I/R received either ri control peptide or ri CD40-TRAF2,3 blocking peptide 90 min after increase in IOP. Eyes were collected 2 d after I/R. Administration of the blocking peptide protects against ganglion cell loss and infiltration by leukocytes (arrowhead). Original magnification ×400. Scale bar, 50 μm. Number of ganglion cells per mm. Number of leukocytes in the inner retina and vitreous per section. mRNA levels of ICAM-1, KC/CXCL1, NOS2 and COX-2 were assessed by quantitative real time PCR as above. Data shown represent Mean±SEM (7-9 mice per group). **P<0.01; ***P<0.001. GCL=Ganglion cell layer; IPL=Inner plexiform layer; INL=Inner nuclear layer. […]"}, "HAEC": {"test_system": "HAEC", "assay": "Viability of HAEC incubated with cell-permeable peptides", "assay_type": "cell-based, human", "conditions": "first generation cell-permeable peptides", "text": "We used peptides that consisted of the amino acid sequence of the TRAF2,3 or the TRAF6 binding sites of CD40 fused a protein transduction domain derived from the Kaposi fibroblast growth factor to make the peptides cell-permeable, (SEQ ID NO: 1 or SEQ ID NO: 2, respectively). […] Thus, the results obtained with the blocking peptides were similar to those obtained with CD40 mutants."}, "[2]": {"test_system": "Human aortic endothelial cells (HAEC)", "assay": "CD154-induced VCAM-1 upregulation in HAEC transduced with wild-type CD40 (FACS)", "assay_type": "cell-based", "conditions": "second generation peptides (Tat MTD), 100 nM, p<0.02", "method": "FIGS. 2A-D are a series of graphs showing the induction of VCAM-1 (FIG. 2A), ICAM-1 (FIG. 2B), MCP-1 (FIG. 2C), and tissue factor (FIG. 2D) expression by TRAFs. Human aortic endothelial cells (HAEC) transduced with empty EGFP-encoding retroviral vector (MIEG3) or retroviral vector that encoded either wild type CD40 (wt CD40), CD40 with a mutation that prevents recruitment of TRAF2 and 3 (ΔT2, 3), recruitment of TRAF6 (ΔT6), or recruitment of TRAF2, 3, and 6 (ΔT2, 3, and 6) were incubated with or without CD154. VCAM-1, ICAM-1, and tissue factor were assessed by FACS on transduced (EGFP+) cells. cMFI=corrected Mean Fluorescence Intensity. MCP-1 was measured by ELISA (N=3).\nFIGS. 3A-B are a series of graphs showing the effects cell-permeable polypeptides that block CD40-TRAF interactions (T2,3BP and T6BP) on upregulation of VCAM-1 and MCP-1 in HAEC. HAEC were transduced with retroviral vectors encoding wild-type CD40 and incubated with or without CD154. HAEC were pre-treated with either control, TRAF2,3 blocking peptide (T2,3BP), or TRAF6 blocking peptide (T6BP) (200 μM) (N=2).\nFIG. 5 is a graph showing the effects of second generation TRAF2, 3 blocking peptide on VCAM-1 upregulation in HAEC.\nCD40 activates a variety of signaling cascades. […] Next, we determined if preventing the function of the TRAF2,3 binding site affects adhesion molecule upregulation. […]"}, "[3]": {"conditions": "1 μg intravitreal prior to I/R, 2 d, real time PCR"}, "[4]": {"conditions": "prior to I/R, 2 d, immunohistochemistry"}},
  "note": "Where no end group is shown, it is not given here.",
  "data": [
    {"compound": "CC(C)C[C@@H](NC(=O)[C@@H](C)NC(=O)[C@@H](CCC(N)=O)NC(=O)[C@H](NC(=O)[C@@H](CC(N)=O)NC(=O)[C@@H](Cc1ccc(O)cc1)NC(=O)CNC(=O)[C@@H](CCCNC(=N)N)NC(=O)[C@@H](CCCCN)NC(=O)[C@@H](CCCCN)NC(=O)[C@@H](CCCNC(=N)N)NC(=O)[C@@H](CCCNC(=N)N)NC(=O)[C@@H](CCC(N)=O)NC(=O)[C@@H](CCCNC(=N)N)NC(=O)[C@@H](CCCNC(=N)N)NC(=O)[C@H](N)CCCNC(=N)N)[C@H](C)O)C(=O)N[C@H](C)C(=O)N[C@H](Cc1c[nH]cn1)C(=O)N[C@@H](C(=O)NCC(=O)N[C@H](CCC(=O)O)C(=O)N[C@@H](C(=O)N[C@H](Cc1c[nH]cn1)C(=O)O)C(C)C)[C@H](C)O", "note": "[ri control peptide, NH2-rrrqrrkkrgy ntqalahtgevh-OH, reference compound]", "values": [
      {"measurement": "toxicity (alamarBlue cell viability assay)", "setting": "[1]", "value": "not toxic"},
      {"measurement": "toxicity (alamarBlue cell viability assay)", "setting": "human Müller cells", "value": "not toxic"},
      {"measurement": "COX-2 mRNA levels in retina", "setting": "retinas subjected to I/R; [3]", "value": "upregulated"},
      {"measurement": "ICAM-1 mRNA levels in retina", "setting": "retinas subjected to I/R; [3]", "value": "marked upregulation"},
      {"measurement": "KC/CXCL1 mRNA levels in retina", "setting": "retinas subjected to I/R; [3]", "value": "marked upregulation"},
      {"measurement": "NOS2 mRNA levels in retina", "setting": "retinas subjected to I/R; [3]", "value": "upregulated"},
      {"measurement": "PMN infiltration in the inner retina and vitreous", "setting": "retinas subjected to I/R; 1 μg intravitreal prior to I/R, 2 d after I/R", "value": "developed PMN infiltration"},
      {"measurement": "loss of ganglion cells", "setting": "retinas subjected to I/R; 1 μg intravitreal prior to I/R, eyes collected 2 d after I/R", "value": "not altered"},
      {"measurement": "expression of ICAM-1 in retinal endothelial cells", "setting": "retinas subjected to I/R; [4]", "value": "increased"},
      {"measurement": "expression of KC/CXCL1 in Müller cells", "setting": "retinas subjected to I/R; [4]", "value": "increased KC/CXCL1 expression"},
      {"measurement": "expression of KC/CXCL1 in retinal endothelial cells", "setting": "retinas subjected to I/R; [4]", "value": "increased"},
      {"measurement": "expression of NOS2 in Müller cells", "setting": "retinas subjected to I/R; [4]", "value": "NOS2 upregulation"}
    ]},
    {"compound": "AAVALLPAVLLALLAPAPHPKQEPQEIDFPDD [SEQ ID NO: 2, AAVALLPAVLLALLAP APHPKQEPQEIDFPDD]", "values": [
      {"measurement": "viability of HAEC", "setting": "HAEC", "value": "did not affect viability"}
    ]},
    {"compound": "AAVALLPAVLLALLAPSNTAAPVQETLHG [SEQ ID NO: 1, AAVALLPAVLLALLAP SNTAAPVQETLHG]", "values": [
      {"measurement": "viability of HAEC", "setting": "HAEC", "value": "did not affect viability"}
    ]},
    {"compound": "KQEPQEIDFPDD YGRKKRRQRRR [SEQ ID NO: 18]", "values": [
      {"measurement": "inhibition of upregulation of VCAM-1 triggered by CD154", "setting": "[2]", "value": 60, "unit": "%"}
    ]},
    {"compound": "NTAAHVQETLHG YGRKKRRQRRR [SEQ ID NO: 13]", "values": [
      {"measurement": "inhibition of upregulation of VCAM-1 triggered by CD154", "setting": "[2]", "value": 60, "unit": "%"}
    ]}
  ]
}
